From ChEMBL document CHEMBL1145558, “3,5-Dihydro-imidazo[4,5-d]pyridazin-4-ones: a class of potent DPP-4 inhibitors” (Bioorg Med Chem Lett, 2008) come the findings set out here.

SMILES strings stand for the structures. pIC50: −log10 of the molar value.

The target of series [1] is T1, Muscarinic acetylcholine receptor M1 (Homo sapiens, UniProt P11229).
T1 sequence (P11229 whole entry): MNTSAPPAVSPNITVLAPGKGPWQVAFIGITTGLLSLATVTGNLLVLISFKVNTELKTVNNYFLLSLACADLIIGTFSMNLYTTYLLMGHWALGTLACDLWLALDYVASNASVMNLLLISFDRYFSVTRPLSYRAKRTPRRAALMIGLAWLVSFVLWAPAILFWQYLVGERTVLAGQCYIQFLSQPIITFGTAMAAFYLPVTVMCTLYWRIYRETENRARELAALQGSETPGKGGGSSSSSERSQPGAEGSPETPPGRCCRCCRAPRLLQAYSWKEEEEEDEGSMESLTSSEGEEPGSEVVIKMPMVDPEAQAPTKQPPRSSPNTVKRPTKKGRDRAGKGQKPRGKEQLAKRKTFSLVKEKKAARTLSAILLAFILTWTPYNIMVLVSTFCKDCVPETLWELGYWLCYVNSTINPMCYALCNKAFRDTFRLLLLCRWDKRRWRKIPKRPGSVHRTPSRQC
As to the kind of experiment: Displacement of [N-methyl-3H]scopolamine from human recombinant muscarinic receptor M1 expressed in CHO cell membrane. In kind it is cell membranes.

Series [2] is filed under the species Rattus norvegicus. As to the kind of experiment: animal or person. The settings on record: Plasma, po, 7 h, read-out: Inhibition.
Description: Ex vivo inhibition of DPP4 in rat plasma at 10 mg/kg, po after 7 hrs
A further series concerns the target hERG (KCNH2) (Homo sapiens, UniProt Q12809). As to the kind of experiment: Inhibition of human ERG assessed as channel current activity at 1 uM. Also noted: scale not given: the % may be the effect or the level left. The settings on record: read-out: Activity.
The target of another series is Cytochrome P450 3A4 (Homo sapiens, UniProt P08684). As to the kind of experiment: Inhibition of CYP3A4. In kind it is ADME.
Cytochrome P450 3A4, sequence (P08684 whole entry): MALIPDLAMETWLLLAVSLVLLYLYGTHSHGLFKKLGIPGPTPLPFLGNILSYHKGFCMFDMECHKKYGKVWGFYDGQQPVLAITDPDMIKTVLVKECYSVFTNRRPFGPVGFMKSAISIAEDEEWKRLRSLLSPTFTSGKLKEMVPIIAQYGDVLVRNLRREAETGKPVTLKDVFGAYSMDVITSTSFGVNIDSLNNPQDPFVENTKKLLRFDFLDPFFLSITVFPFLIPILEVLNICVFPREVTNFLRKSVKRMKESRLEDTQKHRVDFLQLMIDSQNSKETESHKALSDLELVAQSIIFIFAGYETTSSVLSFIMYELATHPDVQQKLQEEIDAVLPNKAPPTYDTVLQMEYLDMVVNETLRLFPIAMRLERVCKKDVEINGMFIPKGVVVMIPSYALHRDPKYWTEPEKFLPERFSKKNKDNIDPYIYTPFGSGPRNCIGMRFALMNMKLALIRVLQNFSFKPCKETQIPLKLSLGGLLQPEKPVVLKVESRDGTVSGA
For a further series, the target named is Cytochrome P450 2D6 (Homo sapiens, UniProt P10635). As to the kind of experiment: Inhibition of CYP2D6. The format is ADME.
Cytochrome P450 2D6, sequence (P10635 whole entry): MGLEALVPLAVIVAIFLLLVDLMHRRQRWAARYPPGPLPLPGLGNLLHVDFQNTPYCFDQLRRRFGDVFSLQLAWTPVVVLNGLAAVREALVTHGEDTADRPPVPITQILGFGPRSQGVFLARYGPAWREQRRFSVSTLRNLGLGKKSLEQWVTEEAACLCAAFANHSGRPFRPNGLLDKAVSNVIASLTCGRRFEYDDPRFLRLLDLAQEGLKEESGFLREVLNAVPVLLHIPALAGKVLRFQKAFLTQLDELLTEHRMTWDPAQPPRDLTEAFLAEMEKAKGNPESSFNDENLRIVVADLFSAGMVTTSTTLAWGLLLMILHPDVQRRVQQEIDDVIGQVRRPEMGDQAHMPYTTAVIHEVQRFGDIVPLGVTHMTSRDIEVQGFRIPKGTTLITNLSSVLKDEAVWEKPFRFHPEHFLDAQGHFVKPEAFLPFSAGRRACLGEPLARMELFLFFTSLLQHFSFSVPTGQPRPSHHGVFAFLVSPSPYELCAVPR
The target in the next series is Cytochrome P450 2C9 (Homo sapiens, UniProt P11712). As to the kind of experiment: Inhibition of CYP2C9. The format is ADME.
Cytochrome P450 2C9, sequence (P11712 whole entry): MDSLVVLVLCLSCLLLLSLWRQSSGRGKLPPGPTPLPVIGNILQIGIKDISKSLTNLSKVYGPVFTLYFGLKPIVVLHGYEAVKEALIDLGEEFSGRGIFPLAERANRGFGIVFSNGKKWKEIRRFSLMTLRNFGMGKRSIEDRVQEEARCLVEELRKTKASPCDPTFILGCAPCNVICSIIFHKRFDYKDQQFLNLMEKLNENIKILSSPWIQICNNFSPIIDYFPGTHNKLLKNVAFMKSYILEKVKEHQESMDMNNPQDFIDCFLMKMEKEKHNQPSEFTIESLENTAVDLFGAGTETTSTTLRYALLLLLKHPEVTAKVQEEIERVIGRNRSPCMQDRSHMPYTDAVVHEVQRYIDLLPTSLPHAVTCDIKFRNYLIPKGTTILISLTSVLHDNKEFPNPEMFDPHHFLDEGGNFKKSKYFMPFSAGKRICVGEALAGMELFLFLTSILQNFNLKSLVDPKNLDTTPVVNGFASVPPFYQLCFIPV
The next series deals with Cytochrome P450 2C19 (Homo sapiens, UniProt P33261). As to the kind of experiment: Inhibition of CYP2C19. In kind it is ADME.
Cytochrome P450 2C19, sequence (P33261 whole entry): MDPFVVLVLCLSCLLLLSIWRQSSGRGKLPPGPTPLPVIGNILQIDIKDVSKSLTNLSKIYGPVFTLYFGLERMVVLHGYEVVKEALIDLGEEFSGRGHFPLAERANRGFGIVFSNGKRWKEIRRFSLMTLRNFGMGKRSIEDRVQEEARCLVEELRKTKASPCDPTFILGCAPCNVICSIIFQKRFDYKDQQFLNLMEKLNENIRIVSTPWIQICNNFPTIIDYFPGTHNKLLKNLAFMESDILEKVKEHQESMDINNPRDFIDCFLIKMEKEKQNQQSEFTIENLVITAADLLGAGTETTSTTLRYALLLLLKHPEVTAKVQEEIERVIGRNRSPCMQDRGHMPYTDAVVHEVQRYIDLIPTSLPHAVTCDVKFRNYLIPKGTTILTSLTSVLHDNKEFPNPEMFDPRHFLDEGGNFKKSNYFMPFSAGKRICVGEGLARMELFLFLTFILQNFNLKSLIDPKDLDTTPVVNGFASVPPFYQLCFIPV
The target of another series is T2, Cytochrome P450 1A2 (Homo sapiens, UniProt P05177).
T2 sequence (P05177 whole entry): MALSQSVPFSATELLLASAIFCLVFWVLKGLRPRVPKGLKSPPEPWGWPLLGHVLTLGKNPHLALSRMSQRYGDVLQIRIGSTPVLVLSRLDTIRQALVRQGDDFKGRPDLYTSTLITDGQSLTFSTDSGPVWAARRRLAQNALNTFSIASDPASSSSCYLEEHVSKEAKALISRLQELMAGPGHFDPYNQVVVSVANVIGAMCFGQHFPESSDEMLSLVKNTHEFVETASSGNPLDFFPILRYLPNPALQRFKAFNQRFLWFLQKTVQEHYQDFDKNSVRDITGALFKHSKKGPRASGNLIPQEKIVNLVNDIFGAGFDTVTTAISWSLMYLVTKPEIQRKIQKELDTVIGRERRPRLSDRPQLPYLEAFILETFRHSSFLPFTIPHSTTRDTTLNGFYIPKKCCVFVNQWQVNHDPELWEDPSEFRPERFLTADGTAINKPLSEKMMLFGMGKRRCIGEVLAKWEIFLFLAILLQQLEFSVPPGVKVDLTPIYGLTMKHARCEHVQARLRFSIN
Put plainly: Inhibition of CYP1A2. The format is ADME.

A short description of series [3]: Metabolic stability in human liver cytosol assessed as half life. In kind it is ADME, tissue-based.
Series [4] is described as follows: Metabolic stability in human liver microsomes assessed as half life. The format is ADME, Microsome. A general note: Liver microsomes are a subcellular fraction often used to study metabolism.
The nature of series [5]: Clearance in rat. In kind it is ADME, organism-based. The settings on record: in vivo.
Series [6] in a line: Volume of distribution at steady state in rat. In kind it is ADME, organism-based. The settings on record: in vivo, read-out: Vdss.
The nature of series [7]: Mean residence time in rat. The format is ADME, organism-based. The following applies: in vivo.
Series [8] in a line: Oral bioavailability in rat. The settings on record: in vivo. The format is ADME, organism-based.
Series [9] concerns Rattus norvegicus. Put plainly: Ex vivo inhibition of DPP4 in rat plasma at 10 mg/kg, po after 24 hrs. The arrangement: scale not given: the % may be the effect or the level left. In kind it is functional.

hERG (KCNH2), sequence (Q12809 whole entry): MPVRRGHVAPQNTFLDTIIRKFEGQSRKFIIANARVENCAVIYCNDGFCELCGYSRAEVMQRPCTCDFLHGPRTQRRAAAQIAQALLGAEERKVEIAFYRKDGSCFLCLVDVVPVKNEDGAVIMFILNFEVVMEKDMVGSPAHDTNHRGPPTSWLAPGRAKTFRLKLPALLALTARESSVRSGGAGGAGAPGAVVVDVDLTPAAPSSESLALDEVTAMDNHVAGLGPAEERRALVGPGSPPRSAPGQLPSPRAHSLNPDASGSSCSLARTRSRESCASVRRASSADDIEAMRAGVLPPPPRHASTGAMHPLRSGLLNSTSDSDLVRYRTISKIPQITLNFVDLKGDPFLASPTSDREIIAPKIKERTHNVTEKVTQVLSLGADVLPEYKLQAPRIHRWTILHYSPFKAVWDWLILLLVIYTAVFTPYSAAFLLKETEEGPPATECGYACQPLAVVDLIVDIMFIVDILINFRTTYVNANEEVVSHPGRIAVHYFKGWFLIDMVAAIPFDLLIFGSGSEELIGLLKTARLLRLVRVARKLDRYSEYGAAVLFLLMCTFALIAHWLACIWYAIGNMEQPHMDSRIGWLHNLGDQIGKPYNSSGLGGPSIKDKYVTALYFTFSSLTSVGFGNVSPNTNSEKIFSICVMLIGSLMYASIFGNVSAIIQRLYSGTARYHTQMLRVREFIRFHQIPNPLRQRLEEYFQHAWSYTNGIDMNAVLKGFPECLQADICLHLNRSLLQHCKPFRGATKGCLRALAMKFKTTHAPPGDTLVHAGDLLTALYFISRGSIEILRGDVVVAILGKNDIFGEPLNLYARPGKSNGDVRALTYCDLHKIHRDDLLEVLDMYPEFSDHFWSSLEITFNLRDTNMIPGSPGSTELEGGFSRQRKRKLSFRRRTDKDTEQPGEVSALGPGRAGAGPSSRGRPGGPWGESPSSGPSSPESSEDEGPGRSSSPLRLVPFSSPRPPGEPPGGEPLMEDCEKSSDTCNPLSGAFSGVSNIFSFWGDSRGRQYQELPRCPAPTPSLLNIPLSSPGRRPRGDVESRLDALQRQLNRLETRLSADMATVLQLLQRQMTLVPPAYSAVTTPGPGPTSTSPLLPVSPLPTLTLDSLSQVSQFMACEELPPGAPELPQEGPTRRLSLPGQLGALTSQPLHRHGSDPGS

One may read the pIC50 as the IC50 on a negative log10 scale, so that one unit is a factor of ten. Take `CC#CCn1c(N2CCC[C@@H](N)C2)nc2c(C)nn(Cc3nc(C)c4ccccc4n3)c(=O)c21`: in series [1], the pIC50 is 7.03. The inhibition in vivo at 10 mg/kg in the series listed under Rattus norvegicus [2] was determined as 76%.

As for `CC#CCn1c(N2CCCC(N)C2)nc2cnn(CC3=Nc4ccccc4Oc4ccccc43)c(=O)c21` (centres undefined), the negative logarithm of the IC50 (pIC50) in series [1] is 5.25. Besides, the inhibition in vivo at 10 mg/kg in the series listed under Rattus norvegicus [2] turned out to be 73%.

For `CC#CCn1c(N2CCCC(N)C2)nc2cnn(CC(=O)c3ccccc3)c(=O)c21` (centres undefined), the inhibition in vivo at 10 mg/kg in the series listed under Rattus norvegicus [2] is 8%.

On to `CC#CCn1c(N2CCC[C@H](N)C2)nc2cnn(CC3=Nc4ccccc4Oc4ccccc43)c(=O)c21`, for which the inhibition in vivo at 10 mg/kg in the series listed under Rattus norvegicus [2] worked out at 9%.

As to `CC#CCn1c(N2CCCC(N)C2)nc2cnn(Cc3nc4ccccc4o3)c(=O)c21` (centres undefined), in the series filed under Rattus norvegicus [2], the inhibition in vivo at 10 mg/kg worked out at 64%.

With `CC#CCn1c(NCCN)nc2cnn(Cc3nc(C)c4ccccc4n3)c(=O)c21`, the pIC50 in series [1] was less than 5.30. For the same compound, in the series filed under Rattus norvegicus [2], the inhibition in vivo at 10 mg/kg was 29%.

Turning to `CC#CCn1c(N2CCCNCC2)nc2cnn(Cc3nc(C)c4ccccc4n3)c(=O)c21`, in [1], the negative-log IC50 (pIC50) was 6.02. Moreover, the inhibition in vivo at 10 mg/kg in the series listed under Rattus norvegicus [2] was 20%.

In the case of `CC#CCn1c(N2CCC[C@@H](N)C2)nc2cnn(CC3=Nc4ccccc4Oc4ccccc43)c(=O)c21`, the pIC50 in [1] was less than 5.30. For the same compound, the inhibition in vivo at 10 mg/kg in the series listed under Rattus norvegicus [2] is 63%.

For the compound `CC#CCn1c(N2CCNCC2)nc2cnn(Cc3nc(C)c4ccccc4n3)c(=O)c21`, the pIC50 in series [1] was 5.55. For the same compound, the inhibition in vivo at 10 mg/kg in the series filed under Rattus norvegicus [2] was 45%.

With `CC#CCn1c(NC[C@H](C)N)nc2cnn(Cc3nc(C)c4ccccc4n3)c(=O)c21`, in series [1], the negative logarithm of the IC50 (pIC50) was less than 5.30. Moreover, the inhibition in vivo at 10 mg/kg in the series listed under Rattus norvegicus [2] amounted to 50%.

A word on the half-life: it is how long it takes for the measured level to halve. The clearance is the rate of elimination divided by the concentration. One may read the MRT as a mean duration of stay, worked out from the concentration-time curve. The bioavailability is dose-corrected exposure relative to a reference, in per cent. Regarding `CC#CCn1c(N2CCC[C@@H](N)C2)nc2cnn(Cc3nc(C)c4ccccc4n3)c(=O)c21`, the negative-log IC50 (pIC50) in series [1] was 5.92. The activity at 1 µM at hERG (KCNH2) stood at 88%. Besides, the Inhibition at Cytochrome P450 3A4, at Cytochrome P450 2D6, on Cytochrome P450 2C9, at Cytochrome P450 2C19 and at Cytochrome P450 1A2 was greater than 50 µM in each case. The half-life in series [3] and in series [4] was greater than 1.5 h each time. This compound also showed a clearance in series [5] of 56 mL/min/kg. Also, the Vd in series [6] is 40 L/kg. Also, the MRT in [7] is 8.8 h. This compound displayed a bioavailability in series [8] of 15%. In the series with Rattus norvegicus [9], this compound had an Activity of 71%. Moreover, in the series filed under Rattus norvegicus [2], the inhibition in vivo at 10 mg/kg is 80%.

Take `CC#CCn1c(N2CCCC(N)C2)nc2cnn(Cc3ccc(C#N)c4ccccc34)c(=O)c21` (centres undefined): in series [1], the pIC50 was 6.06. Also, the inhibition in vivo at 10 mg/kg in the series listed under Rattus norvegicus [2] amounted to 84%.
